Results from BindingDB's records for doi:10.1016/j.bmcl.2021.128376 (Bristol Myers Squibb Research and Development, 2021).

assay: Inhibition of c-MYC (unknown origin)

Row | SMILES | IC50 [nM]
1 | [2H]C([2H])([2H])c1nnn(C)c1-c1cc2c(cc1F)c1ncc(C(C)(C)O)cc1n2[C@H](c1cc(C)on1)C1CCOCC1 | 2.4
2 | Cc1nnn(C)c1-c1cnc2c3ccc(C(C)(C)O)cc3n([C@H](c3ccccc3)C3CCOCC3)c2c1 [US10112941, Example 54] | 0.7
3 | Cc1nnn(C)c1-c1cc(F)c2c3ncc(C(C)(C)O)cc3n([C@H](c3ccccc3)C3CCOCC3)c2c1 [US10683290, Example 11] | 3.4
4 | Cc1nnn(C)c1-c1cc2c(cc1F)c1ncc(C(C)(C)O)cc1n2[C@H](c1ccccc1)C1CCOCC1 [US10683290, Example 19] | 0.8
5 | Cc1nnn(C)c1-c1ccc2c3ncc(C(C)(C)O)cc3n([C@H](c3ccccc3)C3CCOCC3)c2c1F [US10683290, Example 20] | 0.6
6 | Cc1nnn(C)c1-c1cc2c(cc1Cl)c1ncc(C(C)(C)O)cc1n2[C@H](c1ccccc1)C1CCOCC1 [US10683290, Example 77] | 42

Further compounds by falling IC50, results first:

Row | IC50 [nM] | SMILES
7 | 6.9 | Cc1nnn(C)c1-c1cc2c(cn1)c1ncc(C(C)(C)O)cc1n2[C@H](c1ccccc1)C1CCOCC1 [US9725449, Example 364]
8 | 1.3 | [2H]C([2H])([2H])c1nnn(C)c1-c1cc2c(cc1F)c1ncc(C(C)(C)O)cc1n2[C@H](c1ncccc1F)C1CCOCC1
9 | 0.7 | [2H]C([2H])([2H])c1nnn(C)c1-c1cc2c(cc1F)c1ncc(C(C)(C)O)cc1n2[C@@H](CCC)c1ncccc1F
10 | 0.2 | Cc1nnn(C)c1-c1ccc2c3ncc(C(C)(C)O)cc3n([C@H](c3ccccc3)C3CCOCC3)c2c1 [US10683290, Example 16]
